In ChEMBL document CHEMBL1145390, “Synthesis and preliminary biological characterization of new semisynthetic derivatives of ramoplanin” (J Med Chem, 2007):
Converted amounts (≈) assume the structure as drawn. Numbered stars: 1 amine (or outer) side, 2 acyl side, 3 side chain; on linkers, the order of the positions; unused ones are H or OH. Bridge positions count the residues as written; N and C are the ends. Square brackets hold non-standard residues; d marks the D form. Peptide text beside a SMILES is read from it. * marks the point of attachment. Hpg(αMan(1-2)αMan) = N[C@H](C(=O)O)c1ccc(O[C@H]2O[C@H](CO)[C@@H](O)[C@H](O)[C@@H]2O[C@H]2O[C@H](CO)[C@@H](O)[C@H](O)[C@@H]2O)cc1; Octa(2Z,4E)dienoyl(7-Me) = CC(C)C/C=C/C=C\C(=O)*; X1 = NC(=O)[C@@H](O[*:3])[C@H](N[*:1])C(=O)[*:2]; Hpg(3-Cl) = N[C@H](C(=O)O)c1ccc(O)c(Cl)c1; d(aThr) = C[C@@H](O)[C@@H](N)C(=O)O; dHpg = N[C@@H](C(=O)O)c1ccc(O)cc1; Hpg = N[C@H](C(=O)O)c1ccc(O)cc1; aThr = C[C@H](O)[C@H](N)C(=O)O; dOrn = NCCC[C@@H](N)C(=O)O

Legend:
Enterococcus faecium [1] = assay: Antibacterial activity against Enterococcus faecium after 24 hrs by broth microdilution method; format: functional; conditions: read-out: MIC
Staphylococcus aureus [2] = assay: Antibacterial activity against methicillin-resistant and vancomycin-intermediate resistant Staphylococcus aureus clinical isolate after 24 hrs by broth microdilution method; format: functional; conditions: read-out: MIC
Candida albicans = assay: Antifungal activity against Candida albicans SKF-2270 after 24 hrs by broth microdilution method; format: functional; conditions: read-out: MIC
[3] = Toxicity assessed as hemolysis in erythrocytes at 400 mg/L; format: cell-based, Erythrocyte; conditions: human, read-out: Activity
Enterococcus faecalis [4] = assay: Antibacterial activity against vancomycin-resistant Enterococcus faecalis in presence of 30% bovine serum after 24 hrs by broth microdilution method; format: functional
[5] = Toxicity assessed as hemolysis in erythrocytes at 200 mg/L; format: cell-based, Erythrocyte; conditions: human, read-out: Activity
Staphylococcus aureus [6] = assay: Antibacterial activity against Staphylococcus aureus Smith in presence of 30% bovine serum after 24 hrs by broth microdilution method; format: functional
Staphylococcus aureus [7] = assay: Antibacterial activity against vancomycin-intermediate resistant Staphylococcus aureus clinical isolate after 24 hrs by broth microdilution method; format: functional
Enterococcus faecalis [8] = assay: Antibacterial activity against Enterococcus faecalis after 24 hrs by broth microdilution method; format: functional; conditions: read-out: MIC
[9] = Toxicity assessed as hemolysis in erythrocytes at 100 mg/L; format: cell-based, Erythrocyte; conditions: human, read-out: Activity
Enterococcus faecium [10] = assay: Antibacterial activity against vancomycin A-resistant Enterococcus faecium clinical isolate in presence of 30% bovine serum after 24 hrs by broth microdilution method; format: functional
Staphylococcus aureus [11] = assay: Antibacterial activity against methicillin-resistant Staphylococcus aureus clinical isolate after 24 hrs by broth microdilution method; format: functional; conditions: read-out: MIC
Staphylococcus aureus [12] = assay: Antibacterial activity against vancomycin-intermediate resistant Staphylococcus aureus clinical isolate in presence of 30% bovine serum after 24 hrs by broth microdilution method; format: functional
Staphylococcus aureus [13] = assay: Antibacterial activity against Staphylococcus aureus Smith after 24 hrs by broth microdilution method; format: functional; conditions: read-out: MIC
Streptococcus pyogenes = assay: Antibacterial activity against Streptococcus pyogenes C203 after 24 hrs by broth microdilution method; format: functional; conditions: C203, 24 h, read-out: MIC
Escherichia coli = assay: Antibacterial activity against Escherichia coli SKF-12140 after 24 hrs by broth microdilution method; format: functional; conditions: read-out: MIC
[14] = Toxicity assessed as hemolysis in erythrocytes at 180 mg/L; format: cell-based, Erythrocyte; conditions: human, erythrocytes; read-out: Activity
[15] = Toxicity assessed as hemolysis in erythrocytes at 90 mg/L; format: cell-based, Erythrocyte; conditions: human, erythrocytes; read-out: Activity

| SMILES | MIC (Enterococcus faecium [1]) [µg/mL] | MIC (Staphylococcus aureus [2]) [µg/mL] | MIC (Candida albicans) [µg/mL] | hemolysis at 400 mg/L [3] [%] | MIC (Enterococcus faecalis [4]) [µg/mL] | hemolysis at 200 mg/L [5] [%] | MIC (Staphylococcus aureus [6]) [µg/mL] | MIC (Staphylococcus aureus [7]) [µg/mL] | MIC (Enterococcus faecalis [8]) [µg/mL] | hemolysis at 100 mg/L [9] [%] | MIC (Enterococcus faecium [10]) [µg/mL] | MIC (Staphylococcus aureus [11]) [µg/mL] | MIC (Staphylococcus aureus [12]) [µg/mL] | MIC (Staphylococcus aureus [13]) [µg/mL] | MIC (Streptococcus pyogenes) [µg/mL] | MIC (Escherichia coli) [µg/mL] | hemolysis at 180 mg/L [14] [%] | hemolysis at 90 mg/L [15] [%] |
| --- | --- | --- | --- | --- | --- | --- | --- | --- | --- | --- | --- | --- | --- | --- | --- | --- | --- | --- |
| CC(C)C/C=C/C=C/CC(=O)N[C@@H](CC(N)=O)C(=O)NC[C@@H]1C(=O)N[C@H](c2ccc(O)cc2)C(=O)N[C@H](CCCN)C(=O)N[C@H](C(C)C)C(=O)N[C@@H](c2ccc(O)cc2)C(=O)N[C@H](c2ccc(O)cc2)C(=O)N[C@@H]([C@@H](C)O)C(=O)N[C@@H](Cc2ccccc2)C(=O)N[C@H](CCCN)C(=O)N[C@@H](c2ccc(O[C@H]3O[C@H](CO)[C@@H](O)[C@H](O)[C@@H]3O[C@H]3O[C@H](CO)[C@@H](O)[C@H](O)[C@@H]3O)cc2)C(=O)N[C@H]([C@@H](C)O)C(=O)N[C@@H](c2ccc(O)cc2)C(=O)NCC(=O)N[C@@H](CC(C)C)C(=O)N[C@H](C)C(=O)N[C@@H](c2ccc(O)c(Cl)c2)C(=O)O[C@@H]1C(N)=O | ≤ 0.125 | 1 (≈ 0.388 µM) | > 128 | 78 | 0.5 | 87 | 1 | 0.5 (≈ 0.194 µM) | ≤ 0.125 | 85 | 1 | ≤ 0.125 | 4 | ≤ 0.125 | ≤ 0.125 | > 128 | – | – |
| CC(C)C/C=C/C=C\C(=O)N[C@@H](CC(N)=O)C(=O)N[C@@H]1C(=O)N[C@H](c2ccc(O)cc2)C(=O)N[C@H](CCCN)C(=O)N[C@H]([C@@H](C)O)C(=O)N[C@@H](c2ccc(O)cc2)C(=O)N[C@H](c2ccc(O)cc2)C(=O)N[C@@H]([C@H](C)O)C(=O)N[C@@H](Cc2ccccc2)C(=O)N[C@H](CCCN)C(=O)N[C@@H](c2ccc(O[C@H]3O[C@H](CO)[C@@H](O)[C@H](O)[C@@H]3O[C@H]3O[C@H](CO)[C@@H](O)[C@H](O)[C@@H]3O)cc2)C(=O)N[C@H]([C@@H](C)O)C(=O)N[C@@H](c2ccc(O)cc2)C(=O)NCC(=O)N[C@@H](CC(C)C)C(=O)N[C@H](C)C(=O)N[C@@H](c2ccc(O)c(Cl)c2)C(=O)O[C@@H]1C(N)=O [RAMOPLANIN A2] ({Octa(2Z,4E)dienoyl(7-Me)}-N[X1][dHpg][dOrn][d(aThr)][Hpg][dHpg][aThr]F[dOrn][Hpg(αMan(1-2)αMan)][d(aThr)][Hpg]GL[dA][Hpg(3-Cl)]; ester 2-C) | < 0.03 | 1 (≈ 0.392 µM) | < 32 | – | – | – | – | 0.25 (≈ 0.0979 µM) | < 0.03 | 87 | – | 0.06 (≈ 0.0235 µM) | – | < 0.03 | < 0.03 | < 32 | 79 | 81 |
| CCC/C=C/C=C/CC(=O)N[C@@H](CC(N)=O)C(=O)NC[C@@H]1C(=O)N[C@H](c2ccc(O)cc2)C(=O)N[C@H](CCCN)C(=O)N[C@H](C(C)C)C(=O)N[C@@H](c2ccc(O)cc2)C(=O)N[C@H](c2ccc(O)cc2)C(=O)N[C@@H]([C@@H](C)O)C(=O)N[C@@H](Cc2ccccc2)C(=O)N[C@H](CCCN)C(=O)N[C@@H](c2ccc(O[C@H]3O[C@H](CO)[C@@H](O)[C@H](O)[C@@H]3O[C@H]3O[C@H](CO)[C@@H](O)[C@H](O)[C@@H]3O)cc2)C(=O)N[C@H]([C@@H](C)O)C(=O)N[C@@H](c2ccc(O)cc2)C(=O)NCC(=O)N[C@@H](CC(C)C)C(=O)N[C@H](C)C(=O)N[C@@H](c2ccc(O)c(Cl)c2)C(=O)O[C@@H]1C(N)=O | ≤ 0.125 | 1 (≈ 0.39 µM) | > 128 | 78 | 0.5 | 37 | 0.5 | 0.5 (≈ 0.195 µM) | ≤ 0.125 | 23 | 1 | ≤ 0.125 | 2 | ≤ 0.125 | ≤ 0.125 | > 128 | – | – |
